Reference: patent US8288367B2, “Substituted estratriene derivatives as 17BETA HSD inhibitors” (Solvay Pharmaceuticals GmBH, priority 2006, dated 2012)

Key:
[1] = biological target: T1, recombinant human 17β-HSD2 (Homo sapiens, UniProt P37059); assay: Recombinant 17β-HSD2 assay (HPLC, 3H-estradiol conversion); format: biochemical; conditions: 50 nM estradiol, 1 mM β-NAD, read-out: Inhibition of rec. 17β-HSD2; for inhibition at 0.1 µM: 100 nM compound; for inhibition at 1 µM: 1 μm compound
T1 construct: made in house; host or cells: Sf9 insect cells (baculovirus, Bac to Bac Expression System)
T1 sequence (P37059 1-387): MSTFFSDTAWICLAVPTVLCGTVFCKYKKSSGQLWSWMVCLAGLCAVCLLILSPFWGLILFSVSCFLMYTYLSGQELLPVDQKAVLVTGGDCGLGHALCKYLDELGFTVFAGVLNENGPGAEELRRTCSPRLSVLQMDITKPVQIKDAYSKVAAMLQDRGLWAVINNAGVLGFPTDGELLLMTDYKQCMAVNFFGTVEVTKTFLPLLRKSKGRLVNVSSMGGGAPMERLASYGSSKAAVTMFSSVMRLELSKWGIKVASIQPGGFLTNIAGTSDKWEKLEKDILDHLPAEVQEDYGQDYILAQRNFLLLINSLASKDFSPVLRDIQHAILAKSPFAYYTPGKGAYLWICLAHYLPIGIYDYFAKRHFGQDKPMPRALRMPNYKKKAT
Outline: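 Homogenate of Sf9 cells expressing recombinant human 17β-HSD2 (6 μg/ml protein) incubated with 50 nM estradiol plus 3H-estradiol tracer and 1 mM β-NAD. Estrone and estradiol radioactivity separated by HPLC; % inhibition = 100 − % conversion to estrone.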

[2] = biological target: T2, recombinant human 17β-HSD1 (Homo sapiens, UniProt P14061); assay: Recombinant 17β-HSD1 assay (HPLC, 3H-estrone conversion); format: biochemical; conditions: 30 nM estrone, 1 mM NADPH, 30 min RT, read-out: Inhibition of rec. 17β-HSD1; for inhibition at 0.1 µM: 100 nM compound; for inhibition at 1 µM: 0.5 h, 1 μm compound
T2 construct: made in house; host or cells: Sf9 insect cells (baculovirus, Bac to Bac Expression System)
T2 sequence (P14061 1-328): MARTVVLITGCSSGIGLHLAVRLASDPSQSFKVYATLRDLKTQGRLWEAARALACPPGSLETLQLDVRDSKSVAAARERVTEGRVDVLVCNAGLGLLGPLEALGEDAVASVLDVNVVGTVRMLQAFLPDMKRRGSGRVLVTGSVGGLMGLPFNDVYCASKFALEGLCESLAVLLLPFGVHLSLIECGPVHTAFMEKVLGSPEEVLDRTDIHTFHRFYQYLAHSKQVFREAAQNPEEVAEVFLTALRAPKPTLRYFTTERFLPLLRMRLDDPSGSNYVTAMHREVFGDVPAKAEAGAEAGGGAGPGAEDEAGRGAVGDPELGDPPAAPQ
Outline: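 Sf9-expressed human 17β-HSD1 homogenate (0.1 μg/ml) in 20 mM KH2PO4 pH 7.4 with 30 nM estrone plus 3H-estrone tracer and 1 mM NADPH, 30 min at RT, inhibitors at 1 μM or 0.1 μM. Stopped with TCA; estrone and estradiol separated by reverse-phase HPLC with flow scintillation; % inhibition = 100 − % conversion.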

17β-HSD3 enzyme = biological target: T3, 17β-HSD3 enzyme (Homo sapiens, UniProt P37058); assay: Inhibition of 17β-HSD type 3 enzyme in MCF-7 cells stably expressing 17β-HSD3 (HPLC); format: cell-based; conditions: MCF7, MCF-7 cells expressing 17β-HSD3, 2 nM androstenedione; for inhibition at 1 µM: 1 μM compound; for inhibition at 10 µM: 10 μM compound
T3 construct: expressed in transfected cells; host or cells: MCF-7 cell lines stably expressing 17β-HSD3
T3 sequence (P37058 1-310): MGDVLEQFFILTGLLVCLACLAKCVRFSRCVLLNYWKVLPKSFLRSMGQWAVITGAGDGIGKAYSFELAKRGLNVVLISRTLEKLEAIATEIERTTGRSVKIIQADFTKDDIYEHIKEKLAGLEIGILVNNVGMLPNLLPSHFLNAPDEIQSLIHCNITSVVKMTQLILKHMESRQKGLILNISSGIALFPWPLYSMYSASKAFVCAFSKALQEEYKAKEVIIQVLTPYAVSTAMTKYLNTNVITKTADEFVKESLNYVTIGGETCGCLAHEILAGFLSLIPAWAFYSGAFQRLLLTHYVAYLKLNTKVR
Method: The compounds were screened in respect of 17β-HSD3 enzyme activity in vitro on established MCF-7 cell lines, each stably expressing the 17β-HSD3 enzyme. The interconversion of substrate by 17β-HSD3 and the 17β-HSD3 inhibiting activity of chemical compounds in these cell lines were detected by HPLC system.
Varying amounts of the test compounds were incubated in the growth medium of the 17β-HSD3 expressing cells together tritium labeled androstenedione (2 nM). The medium samples were removed after exact incubation time and the reaction is stopped by trichloroacetic acid (TCA). The samples were analyzed by HPLC-coupled flow scintillation analysis.
Conversion: The 17β-HSD3 inhibiting activity of an individual test compound was calculated by comparing the conversion of a control sample without any test compound (referred to as “Negative Control”) to the (reduced) conversion of the test sample containing the particular compound to be tested (referred to as “Test Sample”).

Row | Structure (SMILES) | inhibition at 0.1 µM [1] [%] | inhibition at 1 µM [1] [%] | inhibition at 0.1 µM [2] [%] | inhibition at 1 µM [2] [%] | inhibition at 1 µM (17β-HSD3 enzyme) [%] | inhibition at 10 µM (17β-HSD3 enzyme) [%]
1 | COc1ccc(CCN(C)C(=O)CC[C@@H]2CC(F)(F)[C@@]3(C)CC[C@@H]4c5ccc(B(O)O)cc5CC[C@H]4[C@H]23)cc1OC [Compound 72, [15beta-(3-{[2-(3,4-dimethoxyphenyl)ethyl](methyl)amino}-3-oxopropyl)-17,17-difluoroestra-1(10),2,4-trien-3-yl]boronic acid] | -2.4 | 5.3 | 39 | 77 | 45 | 71
2 | CCN(CC)C(=O)CCC[C@H]1CC(F)(F)[C@@]2(C)CC[C@@H]3c4ccc(B(O)O)cc4CC[C@H]3[C@H]12 [Compound 49, [15alpha-[4-(diethylamino)-4-oxobutyl]-17,17-difluoroestra-1(10),2,4-trien-3-yl]boronic acid] | 7.7 | 11.6 | 29 | 50 | 62 | 89
3 | C[C@]12CC[C@@H]3c4ccc(B(O)O)cc4CC[C@H]3[C@@H]1[C@@H](CCCC(=O)NC1CCCCC1)CC2(F)F [Compound 48, [15alpha-[4-(cyclohexylamino)-4-oxobutyl]-17,17-difluoroestra-1(10),2,4-trien-3-yl]boronic acid] | 6.4 | 12.8 | 25 | 50 | 13 | 63
